# Reference: patent publication US20100216779A1 (GLAXOSMITHKLINE LLC, priority 2007, published 2010)
# How the values were obtained:
# Type in all cases: cell-based
# COLO205 (colon) = experiment: Inhibition of cell proliferation, CellTiter-Glo, COLO205; settings: Homo sapiens, COLO 205, 72 h
# Summary of the method: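 Exponentially growing COLO205 cells in medium with 10% FBS were plated below 2000 cells/well at 37 °C, 5% CO2. Untreated wells served as controls.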
# [1] = tested on: NCI-H929 (multiple myeloma); experiment: Inhibition of cell proliferation, CellTiter-Glo, NCI-H929; settings: Homo sapiens, 72 h
# Summary of the method: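 Cells were grown in medium with 10% FBS at 37° C, 5% CO2. Cell number was read as CellTiter-Glo luminescence (cellular ATP), with untreated wells as control.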
# [2] = target: T1, human IGF-1R (NIH-3T3 cells over expressing human IGF-1R) (Homo sapiens, UniProt P08069); experiment: IGF-1R cellular autophosphorylation (DELFIA); settings: IGF-1 stimulated
# T1 construct: expressed in transfected cells; host or cells: NIH-3T3 (mouse fibroblasts)
# Summary of the method: (§1)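 Readout: DELFIA on lysates, with anti-IGF-1R or anti-IR capture and europium anti-pTyr detection, expressed relative to 100% ligand-stimulated signal. Human IGF-1R- or IR-overexpressing NIH-3T3 cells got compound (1.5 nM–30 uM) for 2 h before 15 min IGF-1 (30 ng/mL) or insulin (3 ug/mL).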
# [3] = target: T2, IR (NIH-3T3 cells over expressing human IGF-1R or IR) (Homo sapiens, UniProt P06213); experiment: IR cellular autophosphorylation (DELFIA); settings: NIH-3T3 cells over expressing IR, insulin stimulated
# T2 construct: expressed in transfected cells; host or cells: NIH-3T3 (mouse fibroblasts)
# Summary of the method: as §1
# T2 sequence (P06213 28-1382): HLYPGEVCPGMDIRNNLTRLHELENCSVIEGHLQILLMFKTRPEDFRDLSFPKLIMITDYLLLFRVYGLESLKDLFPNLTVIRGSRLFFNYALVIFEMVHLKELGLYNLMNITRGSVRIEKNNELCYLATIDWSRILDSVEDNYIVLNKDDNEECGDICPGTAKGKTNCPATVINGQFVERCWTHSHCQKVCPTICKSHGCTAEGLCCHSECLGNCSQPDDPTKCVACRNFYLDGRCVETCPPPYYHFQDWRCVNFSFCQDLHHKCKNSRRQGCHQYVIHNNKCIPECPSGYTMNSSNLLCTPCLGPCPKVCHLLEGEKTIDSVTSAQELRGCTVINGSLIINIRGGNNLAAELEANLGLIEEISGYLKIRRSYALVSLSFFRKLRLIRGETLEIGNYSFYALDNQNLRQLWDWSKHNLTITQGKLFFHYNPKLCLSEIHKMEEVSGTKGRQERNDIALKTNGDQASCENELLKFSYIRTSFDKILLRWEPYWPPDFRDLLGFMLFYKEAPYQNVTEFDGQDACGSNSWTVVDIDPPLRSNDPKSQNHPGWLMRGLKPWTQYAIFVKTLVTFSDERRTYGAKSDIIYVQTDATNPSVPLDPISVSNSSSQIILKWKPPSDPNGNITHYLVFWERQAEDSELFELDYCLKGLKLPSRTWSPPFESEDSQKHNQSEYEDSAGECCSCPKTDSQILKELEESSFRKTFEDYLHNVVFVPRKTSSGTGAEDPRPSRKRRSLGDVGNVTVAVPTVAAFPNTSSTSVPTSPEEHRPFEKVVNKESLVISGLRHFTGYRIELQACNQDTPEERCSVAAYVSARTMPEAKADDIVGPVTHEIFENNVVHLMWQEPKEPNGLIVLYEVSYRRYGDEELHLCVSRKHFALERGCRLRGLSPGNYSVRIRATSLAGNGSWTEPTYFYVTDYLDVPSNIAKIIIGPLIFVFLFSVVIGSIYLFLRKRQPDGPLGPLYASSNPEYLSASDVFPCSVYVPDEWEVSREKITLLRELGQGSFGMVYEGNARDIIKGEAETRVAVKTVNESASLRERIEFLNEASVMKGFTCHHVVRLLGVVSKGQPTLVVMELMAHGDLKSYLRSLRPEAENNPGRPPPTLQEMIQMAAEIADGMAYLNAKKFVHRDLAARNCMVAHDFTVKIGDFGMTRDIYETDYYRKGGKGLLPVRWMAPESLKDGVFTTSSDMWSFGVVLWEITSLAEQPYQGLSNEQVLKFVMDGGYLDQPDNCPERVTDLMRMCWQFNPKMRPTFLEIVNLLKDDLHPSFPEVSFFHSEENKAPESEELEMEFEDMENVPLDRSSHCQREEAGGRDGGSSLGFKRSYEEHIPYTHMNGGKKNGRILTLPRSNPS
# T1 sequence (P08069 31-1367): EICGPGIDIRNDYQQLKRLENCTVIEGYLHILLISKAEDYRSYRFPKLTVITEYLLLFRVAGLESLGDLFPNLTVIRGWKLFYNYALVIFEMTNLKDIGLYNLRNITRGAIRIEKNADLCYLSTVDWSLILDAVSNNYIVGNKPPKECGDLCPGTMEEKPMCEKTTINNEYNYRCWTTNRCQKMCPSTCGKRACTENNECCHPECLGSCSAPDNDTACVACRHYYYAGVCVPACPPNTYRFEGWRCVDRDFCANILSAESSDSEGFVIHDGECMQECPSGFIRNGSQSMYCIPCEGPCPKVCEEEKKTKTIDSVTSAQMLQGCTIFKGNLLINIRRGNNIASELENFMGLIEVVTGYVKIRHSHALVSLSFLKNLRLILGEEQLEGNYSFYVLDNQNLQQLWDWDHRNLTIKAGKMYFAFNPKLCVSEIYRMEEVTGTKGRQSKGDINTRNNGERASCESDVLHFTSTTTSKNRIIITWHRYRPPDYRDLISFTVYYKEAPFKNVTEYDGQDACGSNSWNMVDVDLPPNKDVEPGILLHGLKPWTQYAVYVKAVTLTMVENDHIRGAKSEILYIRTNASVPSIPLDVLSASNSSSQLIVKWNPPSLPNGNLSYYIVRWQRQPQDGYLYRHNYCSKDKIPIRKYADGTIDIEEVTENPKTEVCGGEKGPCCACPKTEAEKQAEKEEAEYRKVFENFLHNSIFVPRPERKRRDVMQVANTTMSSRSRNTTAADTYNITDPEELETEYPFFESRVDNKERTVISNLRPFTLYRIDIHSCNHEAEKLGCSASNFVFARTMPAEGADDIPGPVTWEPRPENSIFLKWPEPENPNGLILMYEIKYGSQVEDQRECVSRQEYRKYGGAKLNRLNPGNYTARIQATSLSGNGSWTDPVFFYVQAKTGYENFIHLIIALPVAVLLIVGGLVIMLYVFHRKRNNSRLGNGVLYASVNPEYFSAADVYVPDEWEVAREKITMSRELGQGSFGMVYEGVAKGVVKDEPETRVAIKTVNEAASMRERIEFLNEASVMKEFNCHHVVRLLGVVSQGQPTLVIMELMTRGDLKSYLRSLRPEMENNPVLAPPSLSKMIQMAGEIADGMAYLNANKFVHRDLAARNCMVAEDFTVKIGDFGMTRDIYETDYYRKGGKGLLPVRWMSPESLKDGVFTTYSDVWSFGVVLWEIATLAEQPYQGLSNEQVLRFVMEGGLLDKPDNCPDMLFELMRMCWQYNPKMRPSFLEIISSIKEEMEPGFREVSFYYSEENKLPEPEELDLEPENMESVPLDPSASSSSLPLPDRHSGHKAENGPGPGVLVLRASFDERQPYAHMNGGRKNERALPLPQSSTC
compound,measurement,setting,value
"CC(C)Cc1cc(N2CCC(N3CCCCC3)CC2)ccc1Nc1nccc(-c2c(-c3cccc(C(=O)Nc4c(F)cccc4F)c3)nc3ccccn23)n1 [Example 42, 3-[3-(2-{[4-(1,4′-bidideridin-1′-yl)-2-(2-methylpropyl)phenyl]amino}-4-pyrimidinyl)imidazo[1,2-a]pyridin-2-yl]-N-(2,6-difluorophenyl)benzamide]",IC50,COLO205 (colon),> 1000 nM
same,IC50,[1],> 1000 nM
same,IC50,[2],< 100 nM
same,IC50,[3],> 500 nM
"CCOc1ccc(-c2nc3ccccn3c2-c2ccnc(Nc3ccc(N4CCC(N5CCN(CCF)CC5)CC4)cc3OC)n2)cc1C(=O)Nc1c(F)cccc1F [Example 63, N-(2,6-difluorophenyl)-2-(ethyloxy)-5-[3-(2-{[4-{4-[4-(2-fluoroethyl)-1-piperazinyl]-1-piperidinyl}-2-(methyloxy)phenyl]amino}-4-pyrimidinyl)imidazo[1,2-a]pyridin-2-yl]benzamide]",IC50,COLO205 (colon),250 to 1000 nM
same,IC50,[1],< 250 nM
same,IC50,[2],< 100 nM
same,IC50,[3],< 100 nM
"CCCN1CCC(c2ccc(Nc3nccc(-c4c(-c5ccc(OC)c(C(=O)Nc6c(F)cccc6F)c5)nc5ccccn45)n3)c(OCC)c2)CC1 [Example 154, N-(2,6-difluorophenyl)-5-[3-(2-{[2-(ethyloxy)-4-(1-propyl-4-piperidinyl)phenyl]amino}-4-pyrimidinyl)imidazo[1,2-a]pyridin-2-yl]-2-(methyloxy)benzamide]",IC50,COLO205 (colon),250 to 1000 nM
same,IC50,[1],< 250 nM
same,IC50,[2],< 100 nM
same,IC50,[3],< 100 nM
"CCOc1cc(N2CCN(CCS(C)(=O)=O)CC2)ccc1Nc1nccc(-c2c(-c3ccc(OCC)c(C(=O)Nc4c(F)cccc4F)c3)nc3ccccn23)n1 [Example 144, N-(2,6-difluorophenyl)-2-(ethyloxy)-5-(3-{2-[(2-(ethyloxy)-4-{4-[2-(methylsulfonyl)ethyl)-1-piperazinyl}phenyl)amino]-4-pyrimidinyl}imidazo[1,2-a]pyridin-2-yl)benzamide]",IC50,COLO205 (colon),< 250 nM
same,IC50,[1],< 250 nM
same,IC50,[2],< 100 nM
same,IC50,[3],< 100 nM
"CCOc1ccc(-c2nc3ccccn3c2-c2ccnc(Nc3ccc(N4CCN(CCOC)CC4)cc3OC)n2)cc1C(=O)Nc1c(F)cccc1F [Example 238, N-(2,6-difluorophenyl)-2-(ethyloxy)-5-(3-{2-[(2-(methyloxy)-4-{4-[2-(methyloxy)ethyl]-1-piperazinyl}phenyl)amino]-4-pyrimidinyl}imidazo[1,2-a]pyridin-2-yl)benzamide]",IC50,COLO205 (colon),250 to 1000 nM
same,IC50,[1],< 250 nM
same,IC50,[2],< 100 nM
same,IC50,[3],< 100 nM
"CCOc1cc(N2CCC(N3CCN(S(C)(=O)=O)CC3)CC2)ccc1Nc1nccc(-c2c(-c3ccc(OCC)c(C(=O)Nc4c(F)cccc4F)c3)nc3ccccn23)n1 [Example 222, N-(2,6-difluorophenyl)-2-(ethyloxy)-5-(3-{2-[(2-(ethyloxy)-4-{4-[4-(methylsulfonyl)-1-piperazinyl]-1-piperidinyl}phenyl)amino]-4-pyrimidinyl}imidazo[1,2-a]pyridin-2-yl)benzamide]",IC50,COLO205 (colon),< 250 nM
same,IC50,[1],< 250 nM
same,IC50,[2],< 100 nM
same,IC50,[3],< 100 nM
"COc1cc(N2CCN(CCS(C)(=O)=O)CC2)c(Cl)cc1Nc1nccc(-c2c(-c3ccc(OC)c(C(=O)Nc4c(F)cccc4F)c3)nc3ccccn23)n1 [Example 213, 5-(3-{2-[(5-chloro-2-(methyloxy)-4-{4-[2-(methylsulfonyl)ethyl]-1-piperazinyl}phenyl)amino]-4-pyrimidinyl}imidazo[1,2-a]pyridin-2-yl)-N-(2,6-difluorophenyl)-2-(methyloxy)benzamide]",IC50,COLO205 (colon),< 250 nM
same,IC50,[1],< 250 nM
same,IC50,[2],< 100 nM
same,IC50,[3],< 100 nM
"CCOc1ccc(-c2nc3ccccn3c2-c2ccnc(Nc3ccc(N4CCC(N5CCC(CCS(C)(=O)=O)CC5)CC4)cc3OC)n2)cc1C(=O)Nc1c(F)cccc1F [Example 103, N-(2,6-difluorophenyl)-2-(ethyloxy)-5-(3-{2-[(2-(methyloxy)-4-{4-[2-(methylsulfonyl)ethyl]-1,4′-bipiperidin-1′-yl}phenyl)amino]-4-pyrimidinyl}imidazo[1,2-a]pyridin-2-yl)benzamide]",IC50,COLO205 (colon),250 to 1000 nM
same,IC50,[1],< 250 nM
same,IC50,[2],< 100 nM
same,IC50,[3],< 100 nM
"CCCN1CCN(c2ccc(Nc3nccc(-c4c(-c5ccc(OCC)c(C(=O)Nc6c(F)cccc6F)c5)nc5ccccn45)n3)c(OC)c2)CC1 [Example 178, N-(2,6-difluorophenyl)-2-(ethyloxy)-5-[3-(2-{[2-(methyloxy)-4-(4-propyl-1-piperazinyl)phenyl]amino}-4-pyrimidinyl)imidazo[1,2-a]pyridin-2-yl]benzamide]",IC50,COLO205 (colon),250 to 1000 nM
same,IC50,[1],< 250 nM
same,IC50,[2],< 100 nM
same,IC50,[3],< 100 nM
"COc1cc(N2CCN(CCS(C)(=O)=O)CC2)c(C)cc1Nc1nccc(-c2c(-c3cccc(C(=O)Nc4c(F)cccc4F)c3)nc3ccccn23)n1 [Example 148, N-(2,6-difluorophenyl)-3-(3-{2-[(5-methyl-2-(methyloxy)-4-{4-[2-(methylsulfonyl)ethyl]-1-piperazinyl}phenyl)amino]-4-pyrimidinyl}imidazo[1,2-a]pyridin-2-yl)benzamide]",IC50,COLO205 (colon),< 250 nM
same,IC50,[1],< 250 nM
same,IC50,[2],< 100 nM
same,IC50,[3],< 100 nM
"CCCN1CCN(c2ccc(Nc3nccc(-c4c(-c5cccc(C(=O)Nc6c(F)cccc6F)c5)nc5ccccn45)n3)c(OC)c2)CC1 [Example 173, N-(2,6-difluorophenyl)-3-[3-(2-{[2-(methyloxy)-4-(4-propyl-1-piperazinyl)phenyl]amino}-4-pyrimidinyl)imidazo[1,2-a]pyridin-2-yl]benzamide]",IC50,COLO205 (colon),250 to 1000 nM
same,IC50,[1],250 to 1000 nM
same,IC50,[2],< 100 nM
same,IC50,[3],< 100 nM
"CCOc1cc(C2CCN(CCS(C)(=O)=O)CC2)ccc1Nc1nccc(-c2c(-c3ccc(OCC)c(C(=O)Nc4c(F)cccc4F)c3)nc3ccccn23)n1 [Example 185, N-(2,6-difluorophenyl)-2-(ethyloxy)-5-(3-{2-[(2-(ethyloxy)-4-{1-[2-(methylsulfonyl)ethyl]-4-piperidinyl}phenyl)amino]-4-pyrimidinyl}imidazo[1,2-a]pyridin-2-yl)benzamide]",IC50,COLO205 (colon),< 250 nM
same,IC50,[1],< 250 nM
same,IC50,[2],< 100 nM
same,IC50,[3],< 100 nM
"COc1cc(N2CCC(N3CCN(S(C)(=O)=O)CC3)CC2)ccc1Nc1nccc(-c2c(-c3ccc(OC)c(C(=O)Nc4c(F)cccc4F)c3)nc3cc(F)ccn23)n1 [Example 199, N-(2,6-difluorophenyl)-5-(7-fluoro-3-{2-[(2-(methyloxy)-4-{4-[4-(methylsulfonyl)-1-piperazinyl]-1-piperidinyl}phenyl)amino]-4-pyrimidinyl}imidazo[1,2-a]pyridin-2-yl)-2-(methyloxy)benzamide]",IC50,COLO205 (colon),250 to 1000 nM
same,IC50,[1],< 250 nM
same,IC50,[2],< 100 nM
same,IC50,[3],< 100 nM
"COCCN1CCN(c2cc(OC)c(Nc3nccc(-c4c(-c5cccc(C(=O)Nc6c(F)cccc6F)c5)nc5ccccn45)n3)cc2C)CC1 [Example 243, N-(2,6-difluorophenyl)-3-(3-{2-[(5-methyl-2-(methyloxy)-4-{4-[2-(methyloxy)ethyl]-1-piperazinyl}phenyl)amino]-4-pyrimidinyl}imidazo[1,2-a]pyridin-2-yl)benzamide]",IC50,COLO205 (colon),250 to 1000 nM
same,IC50,[1],< 250 nM
same,IC50,[2],< 100 nM
same,IC50,[3],< 100 nM
